# Patent US20220372031A1, “NOVEL TRICYCLIC AROMATIC HETEROCYCLIC COMPOUND, PREPARATION METHOD THEREFOR, PHARMACEUTICAL COMPOSITION AND APPLICATION THEREOF” (SHANGHAI LONGWOOD BIOPHARMACEUTICALS CO., LTD., priority 2019, published 2022)
# pIC50: −log10 of the molar value.
# Target: T1, PD-1/PD-L1 (Homo sapiens, UniProt Q9NZQ7)
# T1 construct: Recombinant human PD-L1 protein (19-238) with a His-tagged at the C-terminus; purchased AcroBiosystems PD1-H5229 (PD-L1); PD1-H5257 (PD-1)
# Experiment: PD-1/PD-L1 homogeneous time-resolved fluorescence (HTRF) binding assay
# Settings: PD-1/PD-L1 HTRF binding, ~3 nM PD1, 10 nM PD-L1, 25° C., PBS pH 7.4
# Method: Assays were performed in standard black 384-well polystyrene plates and a final volume was 20 μL. The inhibitor was first serially diluted with DMSO and added to the wells of the plate, followed by the addition of other reaction components. The final concentration of DMSO in the assay was 1%. Assays were performed at 25° C. in PBS buffer (pH 7.4) containing 0.05% Tween-20 and 0.1% BSA. Recombinant human PD-L1 protein (19-238) with a His-tagged at the C-terminus was purchased from AcroBiosystems (PD1-H5229). Recombinant human PD-1 protein (25-167) with an Fc tag at the C-terminus was also purchased from AcroBiosystems (PD1-H5257). The PD-L1 and PD-1 proteins were diluted in assay buffer and then […] of the solution was extracted and added to the wells of the plate. Plates were centrifuged and proteins and inhibitors were preincubated for 40 minutes. After incubation, 0.1 μl of HTRF detection buffer containing europium […] labeled anti-human IgG (PerkinElmer-AD0212), Fc-specific and anti-His SureLight®-Allophycocyanin (APC, PerkinElmer-AD0059H) conjugated antibodies was added. After centrifugation, the plates were incubated at 25° C. for 60 minutes. Data was read in a PHERAstar FS plate reader (665 nm/620 nm ratio). Final concentrations in the assay were ˜3 nM PD1, 10 nM PD-L1, 1 nM europium anti-human IgG, and 20 nM anti-His-allophycocyanin. Activity data were fitted using GraphPad Prism 5_0 software to derive IC50 values for inhibitors.
# T1 sequence (Q9NZQ7 19-238): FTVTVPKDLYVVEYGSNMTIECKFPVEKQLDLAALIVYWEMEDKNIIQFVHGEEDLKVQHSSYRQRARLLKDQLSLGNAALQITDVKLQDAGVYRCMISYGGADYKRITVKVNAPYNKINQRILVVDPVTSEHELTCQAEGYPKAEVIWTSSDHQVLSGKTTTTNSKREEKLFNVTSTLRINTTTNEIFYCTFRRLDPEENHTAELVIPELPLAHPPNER
row,pIC50,Structure (SMILES)
1,≥ 8.00,N#Cc1c2c(cc3nc(-c4cccc(-c5cccc(Nc6nc(C(F)F)nc7cc(CN8CC[C@@H](O)C8)cnc67)c5Cl)c4Cl)oc13)[C@H](N1CC[C@@H](C(=O)NS(=O)(=O)C3CC3)C1)CC2 [Compound 087]
2,≥ 8.00,CC1(S(=O)(=O)NC(=O)[C@@H]2CCN([C@@H]3CCc4c3cc3nc(-c5cccc(-c6cccc(Nc7nc(C(F)F)nc8cc(CN9CC[C@@H](O)C9)cnc78)c6Cl)c5Cl)oc3c4C#N)C2)CC1 [Compound 088]
3,≥ 8.00,COc1nc(-c2cccc(-c3cccc(-c4nc5cc6c(c(C#N)c5o4)CC[C@H]6N4CC[C@@H](C(=O)O)C4)c3Cl)c2Cl)cnc1CN1CC[C@@H](O)C1 [Compound 162]
4,≥ 8.00,COc1nc(-c2cccc(-c3cccc(-c4nc5cc6c(c(C#N)c5o4)CC[C@H]6N4CC[C@@H](C(=O)O)C4)c3Cl)c2C)cnc1CN1CC[C@@H](O)C1 [Compound 175]
5,≥ 8.00,COc1nc(-c2cccc(-c3cccc(-c4nc5cc6c(c(C#N)c5o4)CC[C@H]6N4CC[C@@H](C(=O)O)C4)c3C)c2Cl)cnc1CN1CC[C@@H](O)C1 [Compound 182]
6,≥ 8.00,COc1nc(-c2cccc(-c3cccc(-c4nc5cc6c(c(C#N)c5o4)CC[C@H]6N4CC[C@@H](C(=O)NS(=O)(=O)C5CC5)C4)c3Cl)c2C)cnc1CN1CC[C@@H](O)C1 [Compound 231]
7,≥ 8.00,COc1nc(-c2cccc(-c3cccc(-c4nc5cc6c(c(C#N)c5o4)CC[C@H]6N4CC[C@@H](C(=O)NS(=O)(=O)C5CC5)C4)c3C)c2Cl)cnc1CN1CC[C@@H](O)C1 [Compound 232]
8,≥ 8.00,COc1nc(-c2cccc(-c3cccc(-c4nc5cc6c(c(C#N)c5o4)CC[C@H]6N4CC[C@@H](C(=O)NS(=O)(=O)C5(C)CC5)C4)c3Cl)c2C)cnc1CN1CC[C@@H](O)C1 [Compound 233]
9,≥ 8.00,COc1nc(-c2cccc(-c3cccc(-c4nc5cc6c(c(C#N)c5o4)CC[C@H]6N4CC[C@@H](C(=O)NS(=O)(=O)C5(C)CC5)C4)c3C)c2Cl)cnc1CN1CC[C@@H](O)C1 [Compound 234]
10,≥ 8.00,Cc1c(-c2nc3cc4c(c(C#N)c3o2)CC[C@H]4N2CC[C@@H](C(=O)O)C2)cccc1-c1cccc(Nc2nccc3cc(CN4CC[C@@H](O)C4)cnc23)c1Cl [Compound 235]
11,≥ 8.00,N#Cc1c2c(cc3nc(-c4cccc(-c5cccc(Nc6nccc7cc(CN8CC[C@@H](O)C8)cnc67)c5Cl)c4Cl)oc13)[C@H](N1CC[C@@H](C(=O)NS(=O)(=O)C3CC3)C1)CC2 [Compound 236]
12,≥ 8.00,Cc1c(Nc2nccc3cc(CN4CC[C@@H](O)C4)cnc23)cccc1-c1cccc(-c2nc3cc4c(c(C#N)c3o2)CC[C@H]4N2CC[C@@H](C(=O)NS(=O)(=O)C3CC3)C2)c1Cl [Compound 237]
13,≥ 8.00,Cc1c(-c2nc3cc4c(c(C#N)c3o2)CC[C@H]4N2CC[C@@H](C(=O)NS(=O)(=O)C3CC3)C2)cccc1-c1cccc(Nc2nccc3cc(CN4CC[C@@H](O)C4)cnc23)c1Cl [Compound 238]
14,≥ 8.00,Cc1c(Nc2nccc3cc(CN4CC[C@@H](O)C4)cnc23)cccc1-c1cccc(-c2nc3cc4c(c(C#N)c3o2)CC[C@H]4N2CC[C@@H](C(=O)NS(=O)(=O)C3(C)CC3)C2)c1C [Compound 239]
15,≥ 8.00,CC1(S(=O)(=O)NC(=O)[C@@H]2CCN([C@@H]3CCc4c3cc3nc(-c5cccc(-c6cccc(Nc7nccc8cc(CN9CC[C@@H](O)C9)cnc78)c6Cl)c5Cl)oc3c4C#N)C2)CC1 [Compound 240]
16,≥ 8.00,Cc1c(Nc2nccc3cc(CN4CC[C@@H](O)C4)cnc23)cccc1-c1cccc(-c2nc3cc4c(c(C#N)c3o2)CC[C@H]4N2CC[C@@H](C(=O)NS(=O)(=O)C3(C)CC3)C2)c1Cl [Compound 241]
17,≥ 8.00,Cc1c(-c2nc3cc4c(c(C#N)c3o2)CC[C@H]4N2CC[C@@H](C(=O)NS(=O)(=O)C3(C)CC3)C2)cccc1-c1cccc(Nc2nccc3cc(CN4CC[C@@H](O)C4)cnc23)c1Cl [Compound 242]

row,pIC50,Structure (SMILES)
1,≥ 8.00,Cc1c(Nc2nccc3cc(CN4CC[C@@H](O)C4)cnc23)cccc1-c1cccc(-c2cc3cc4c(c(C#N)c3o2)CC[C@@H]4N2CC[C@@H](C(=O)O)C2)c1C [Compound 243]
2,≥ 8.00,Cc1c(Nc2nccc3cc(CN4CC[C@@H](O)C4)cnc23)cccc1-c1cccc(-c2cc3cc4c(c(C#N)c3o2)CC[C@H]4N2CC[C@@H](C(=O)O)C2)c1C [Compound 244]
3,≥ 8.00,N#Cc1c2c(cc3cc(-c4cccc(-c5cccc(Nc6nccc7cc(CN8CC[C@@H](O)C8)cnc67)c5Cl)c4Cl)oc13)[C@H](N1CC[C@@H](C(=O)O)C1)CC2 [Compound 245]
4,≥ 8.00,Cc1c(Nc2nccc3cc(CN4CC[C@@H](O)C4)cnc23)cccc1-c1cccc(-c2cc3cc4c(c(C#N)c3o2)CC[C@H]4N2CC[C@@H](C(=O)O)C2)c1Cl [Compound 246]
5,≥ 8.00,Cc1c(-c2cc3cc4c(c(C#N)c3o2)CC[C@H]4N2CC[C@@H](C(=O)O)C2)cccc1-c1cccc(Nc2nccc3cc(CN4CC[C@@H](O)C4)cnc23)c1Cl [Compound 247]
6,≥ 8.00,Cc1c(Nc2nccc3cc(CN4CC[C@@H](O)C4)cnc23)cccc1-c1cccc(-c2cc3cc4c(c(C#N)c3o2)CC[C@H]4N2CC[C@@H](C(=O)NS(=O)(=O)C3CC3)C2)c1C [Compound 248]
7,≥ 8.00,N#Cc1c2c(cc3cc(-c4cccc(-c5cccc(Nc6nccc7cc(CN8CC[C@@H](O)C8)cnc67)c5Cl)c4Cl)oc13)[C@H](N1CC[C@@H](C(=O)NS(=O)(=O)C3CC3)C1)CC2 [Compound 249]
8,≥ 8.00,Cc1c(Nc2nccc3cc(CN4CC[C@@H](O)C4)cnc23)cccc1-c1cccc(-c2cc3cc4c(c(C#N)c3o2)CC[C@H]4N2CC[C@@H](C(=O)NS(=O)(=O)C3CC3)C2)c1Cl [Compound 250]
9,≥ 8.00,Cc1c(-c2cc3cc4c(c(C#N)c3o2)CC[C@H]4N2CC[C@@H](C(=O)NS(=O)(=O)C3CC3)C2)cccc1-c1cccc(Nc2nccc3cc(CN4CC[C@@H](O)C4)cnc23)c1Cl [Compound 251]
10,≥ 8.00,Cc1c(Nc2nccc3cc(CN4CC[C@@H](O)C4)cnc23)cccc1-c1cccc(-c2cc3cc4c(c(C#N)c3o2)CC[C@H]4N2CC[C@@H](C(=O)NS(=O)(=O)C3(C)CC3)C2)c1C [Compound 252]
11,≥ 8.00,CC1(S(=O)(=O)NC(=O)[C@@H]2CCN([C@@H]3CCc4c3cc3cc(-c5cccc(-c6cccc(Nc7nccc8cc(CN9CC[C@@H](O)C9)cnc78)c6Cl)c5Cl)oc3c4C#N)C2)CC1 [Compound 253]
12,≥ 8.00,COc1nc(-c2cccc(-c3cccc(-c4cc5cc6c(c(C#N)c5o4)CC[C@H]6N4CC[C@@H](C(=O)O)C4)c3C)c2C)cnc1CN1CC[C@@H](O)C1 [Compound 256]
13,≥ 8.00,COc1nc(-c2cccc(-c3cccc(-c4cc5cc6c(c(C#N)c5o4)CC[C@H]6N4CC[C@@H](C(=O)O)C4)c3Cl)c2Cl)cnc1CN1CC[C@@H](O)C1 [Compound 257]
14,≥ 8.00,COc1nc(-c2cccc(-c3cccc(-c4cc5cc6c(c(C#N)c5o4)CC[C@H]6N4CC[C@@H](C(=O)O)C4)c3Cl)c2C)cnc1CN1CC[C@@H](O)C1 [Compound 258]
15,≥ 8.00,COc1nc(-c2cccc(-c3cccc(-c4cc5cc6c(c(C#N)c5o4)CC[C@H]6N4CC[C@@H](C(=O)O)C4)c3C)c2Cl)cnc1CN1CC[C@@H](O)C1 [Compound 259]
16,≥ 8.00,COc1nc(-c2cccc(-c3cccc(-c4cc5cc6c(c(C#N)c5o4)CC[C@H]6N4CC[C@@H](C(=O)NS(=O)(=O)C5CC5)C4)c3C)c2C)cnc1CN1CC[C@@H](O)C1 [Compound 260]
